According to US9169241B2, “Quinolinyloxyphenylsulfonamides” (Max-Planck-Gesellschaft Zur Forderung der Wissenschaften …, priority 2009, dated 2015):
Like-named read-outs stand apart in the source and are kept apart here.

Tests used:
[1] = test system: viable cells in culture; experiment: Cell viability assay at 10 μM (CellTiter-Glo, Table VII); assay type: cell-based; conditions: compound 10 μM, 72 h;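 note: graded A 0-20%; B 21-40%; C 41-60%; D over 60% viable cells relative to DMSO control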
Outline: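 Viable cell number was measured with the CellTiter-Glo Luminescent Cell Viability Assay (Promega), following the manufacturer's protocol, which quantifies ATP as a marker of metabolically active cells. In 96-well plates, 1000 cells/well in 100 μl medium were exposed to compound at 10 μM, or to DMSO control, for 72 h. Values were calculated relative to DMSO-control ATP.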

[2] = test system: Hs578T; experiment: Wound healing migration assay; assay type: cell-based; conditions: Homo sapiens, Hs-578T; HS578T cell line; Table Ib
Outline: (§1)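 Cells seeded at 150000/24 well, grown to monolayer overnight, scratched with a pipette tip, then treated with compound at 12.5, 6.25 or 3.125 μM versus DMSO. Stopped by crystal violet fixation at 48-72 h once control wounds closed; IC50 taken as 50% wound size between t0 and t48 or t72.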

[3] = test system: Hs578T; experiment: Matrigel outgrowth assay/branching assay; assay type: cell-based; conditions: Homo sapiens, Hs-578T; HS578T cell line; Table Ib; read-out: Total branching inhibition in Matrigel HS578T
Outline: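 Cells (5000/well) were seeded onto polymerized 3 mg/ml Matrigel with compound at 3.125, 1.56 or 0.78 μM, or DMSO. Imaging by inverted microscopy at 48, 72 and 96 h scored invasive branching. Only concentrations giving total branching inhibition counted as positive.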

[4] = test system: Hs578T; experiment: Cell vitality assay (ATP assay, CellTiter-Glo); assay type: cell-based; conditions: Homo sapiens, Hs-578T; HS578T cell line, 72 h; Table Ib; read-out: IC50 ATP-Assay HS578T after 72 h
Outline: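 1000 cells/well incubated 72 h with compound at 12.5 down to 0.195 μM (twofold steps) or DMSO control. Viability measured as cellular ATP by CellTiter-Glo luminescence; IC50 taken as the concentration giving 50% of the DMSO-control ATP level.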

[5] = test system: indicated cell line; experiment: Wound healing migration assay (Table IV); assay type: cell-based; conditions: compounds at 12.5, 6.25, 3.125 μM, 48 h-72 h
Outline: as §1

[6] = Homo sapiens, HCT-116, HCT116 def, read-out: percentage (%) of viable cells HCT 116def
[7] = Homo sapiens, HCT-116, HCT116 wt, read-out: percentage (%) of viable cells HCT 116wt
[8] = Homo sapiens, HT-29, HT29, read-out: percentage (%) of viable cells HT29
[9] = Homo sapiens, NCI-H358, H358, read-out: percentage (%) of viable cells H358
[10] = Homo sapiens, NCI-H1650, H1650, read-out: percentage (%) of viable cells H1650
[11] = Homo sapiens, NCI-H1666, H1666, read-out: percentage (%) of viable cells H1666
[12] = Homo sapiens, NCI-H1975, H1975, read-out: percentage (%) of viable cells H1975
[13] = Homo sapiens, NCI-H1993, H1993, read-out: percentage (%) of viable cells H1993
[14] = Homo sapiens, A549, read-out: percentage (%) of viable cells A549
[15] = Homo sapiens, HCC827, read-out: percentage (%) of viable cells HCC827
[16] = Homo sapiens, SW480, read-out: percentage (%) of viable cells SW480
[17] = RKO, read-out: percentage (%) of viable cells RKO
[18] = Homo sapiens, C8161 cells, read-out: IC50 Wound healing Assay C8161
[19] = SF763 cells, read-out: IC50 Wound healing Assay SF763

Row | SMILES | melting point | IC50 [2] | IC50 [5, 18] | IC50 [5, 19] | viability at 10 µM [1, 6] | viability at 10 µM [1, 7] | viability at 10 µM [1, 8] | viability at 10 µM [1, 9] | viability at 10 µM [1, 10] | viability at 10 µM [1, 11] | viability at 10 µM [1, 12] | viability at 10 µM [1, 13] | viability at 10 µM [1, 14] | viability at 10 µM [1, 15] | viability at 10 µM [1, 16] | viability at 10 µM [1, 17] | IC50 [3] | IC50 [4]
1 | COc1cc2c(Oc3ccc(NS(=O)(=O)c4cc(Cl)cc(Cl)c4OC)cc3F)ccnc2cc1OCCCN1CCCCC1 [Example 34, 3,5-Dichloro-N-{3-fluoro-4-[6-methoxy-7-(3-piperidin-1-yl-propoxy)-quinolin-4-yloxy]-phenyl}-2-methoxy-benzenesulfonamide] | 173 to 175 °C | ≤ 12.5 µM | ≤ 12.5 µM | 12.5 to 50 µM | 21 to 40% | 0 to 20% | 21 to 40% | 0 to 20% | 21 to 40% | 21 to 40% | 0 to 20% | 0 to 20% | > 60% | > 60% | 0 to 20% | 0 to 20% | ≤ 10 µM | ≤ 12.5 µM
2 | COc1cc2c(Oc3ccc(NS(=O)(=O)c4cc(Cl)cc(Cl)c4OC)cc3F)ccnc2cc1OCCCN1CCN(C)CC1 [Example 35, 3,5-Dichloro-N-(3-fluoro-4-{6-methoxy-7-[3-(4-methyl-piperazin-1-yl)-propoxy]-quinolin-4-yloxy}-phenyl)-2-methoxy-benzenesulfonamide] | 183 to 185 °C |  | ≤ 12.5 µM | ≤ 12.5 µM | 21 to 40% | 0 to 20% | 0 to 20% | 0 to 20% | 21 to 40% | 21 to 40% | 0 to 20% | 21 to 40% | > 60% | 41 to 60% | 0 to 20% | 41 to 60% | ≤ 10 µM | ≤ 12.5 µM
3 | COc1cc2c(Oc3ccc(NS(=O)(=O)c4ccccc4F)cc3F)ccnc2cc1OCCN1CCOCC1 [Example 81, 2-Fluoro-N-{3-fluoro-4-[6-methoxy-7-(2-morpholin-4-yl-ethoxy)-quinolin-4-yloxy]-phenyl}-benzenesulfonamide] | 168 to 169 °C | 12.5 to 50 µM | ≤ 12.5 µM | 12.5 to 50 µM | 21 to 40% | 21 to 40% | 21 to 40% | 0 to 20% | 21 to 40% | 21 to 40% | 0 to 20% | 21 to 40% | 41 to 60% | 0 to 20% | 0 to 20% | 41 to 60% | ≤ 10 µM | ≤ 12.5 µM
4 | COc1cc2c(Oc3ccc(NS(=O)(=O)c4c(F)cccc4F)cc3F)ccnc2cc1OCCN1CCOCC1 [Example 82, 2,6-Difluoro-N-{3-fluoro-4-[6-methoxy-7-(2-morpholin-4-yl-ethoxy)-quinolin-4-yloxy]-phenyl}-benzenesulfonamide] | 182 to 183 °C | 12.5 to 50 µM | ≤ 12.5 µM | ≤ 12.5 µM | 21 to 40% | 0 to 20% | 0 to 20% | 21 to 40% | 21 to 40% | 41 to 60% | 21 to 40% | 0 to 20% | > 60% | 21 to 40% | 21 to 40% | 41 to 60% | ≤ 10 µM | ≤ 12.5 µM
5 | COc1cc2c(Oc3cccc(NS(=O)(=O)c4ccccc4C(F)(F)F)c3)ccnc2cc1OCCCN1CCN(C)CC1 [Example 102, N-(3-{6-Methoxy-7-[3-(4-methyl-piperazin-1-yl)-propoxy]-quinolin-4-yloxy}-phenyl)-2-trifluoromethyl-benzenesulfonamide] | 155 to 156 °C | ≤ 12.5 µM | 12.5 to 50 µM | ≤ 12.5 µM | 0 to 20% | 0 to 20% | 0 to 20% | 0 to 20% | 41 to 60% | 41 to 60% | 21 to 40% | 21 to 40% | 41 to 60% | 21 to 40% | 0 to 20% | 21 to 40% | 10 to 25 µM | ≤ 12.5 µM

More lines, main results first:

Row | melting point | IC50 [2] | IC50 [5, 18] | IC50 [5, 19] | SMILES | viability at 10 µM [1, 6] | viability at 10 µM [1, 7] | viability at 10 µM [1, 8] | viability at 10 µM [1, 9] | viability at 10 µM [1, 10] | viability at 10 µM [1, 11] | viability at 10 µM [1, 12] | viability at 10 µM [1, 13] | viability at 10 µM [1, 14] | viability at 10 µM [1, 15] | viability at 10 µM [1, 16] | viability at 10 µM [1, 17] | IC50 [3] | IC50 [4]
6 | 124 to 126 °C | ≤ 12.5 µM | ≤ 12.5 µM | 12.5 to 50 µM | COc1cc2c(Oc3ccc(NS(=O)(=O)c4ccc(F)c(Cl)c4)cc3F)ccnc2cc1OCCCN1CCCC(C)C1 (centres unmarked) [Example 57, 3-Chloro-4-fluoro-N-(3-fluoro-4-{6-methoxy-7-[3-(3-methyl-piperidin-1-yl)-propoxy]-quinolin-4-yloxy}-phenyl)-benzenesulfonamide] | 21 to 40% | > 60% | 0 to 20% | 21 to 40% | 41 to 60% | 41 to 60% | 0 to 20% | 21 to 40% | > 60% | > 60% | 0 to 20% | 0 to 20% | ≤ 10 µM | ≤ 12.5 µM
7 | 131 to 133 °C | ≤ 12.5 µM | 12.5 to 50 µM | ≤ 12.5 µM | COc1cc2c(Oc3ccc(NS(=O)(=O)c4cccc5ccccc45)cc3F)ccnc2cc1OCCCN1CCCC(C)C1 (centres unmarked) [Example 58, Naphthalene-1-sulfonic acid (3-fluoro-4-{6-methoxy-7-[3-(3-methyl-piperidin-1-yl)-propoxy]-quinolin-4-yloxy}-phenyl)-amide] | 21 to 40% | 0 to 20% | 0 to 20% | 21 to 40% | > 60% | 21 to 40% | 0 to 20% | 41 to 60% | 41 to 60% | > 60% | 0 to 20% | 0 to 20% | ≤ 10 µM | ≤ 12.5 µM
